Assay results as given in the supplement of paper PMC11451515.

Tested on: P12-Ichikawa
Test: cell viability relative to DMSO control; higher = less cytotoxic
Details: 48 h
Method in brief: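 In 1536-well plates, 5 μl of leukemia cells were seeded per well: 500 cells/well for NOMO1 or SEM and 1000 cells/well for P12-Ichikawa. Each line had first been adapted for at least four passages in each medium. Library compounds in DMSO were pin-dosed at 11 threefold concentrations between 47 μM and 0.79 nM, and CellTiter-Glo One luminescence was read after 48 h at 37°C. Viability is a per-plate percentage relative to DMSO wells, with cell-free wells as background.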

[1] = HPLM + 10% dialyzed FBS, 0.000781 µM
[2] = HPLM + 10% dialyzed FBS, 0.00234 µM
[3] = HPLM + 10% dialyzed FBS, 0.00702 µM
[4] = HPLM + 10% dialyzed FBS, 0.0211 µM
[5] = HPLM + 10% dialyzed FBS, 0.0632 µM
[6] = HPLM + 10% dialyzed FBS, 0.19 µM
[7] = HPLM + 10% dialyzed FBS, 0.569 µM
[8] = HPLM + 10% dialyzed FBS, 1.71 µM
[9] = HPLM + 10% dialyzed FBS, 5.12 µM
[10] = HPLM + 10% dialyzed FBS, 15.4 µM
[11] = HPLM + 10% dialyzed FBS, 46.1 µM
[12] = RPMI 5 mM glucose + 10% FBS, 0.000781 µM
[13] = RPMI 5 mM glucose + 10% FBS, 0.00234 µM
[14] = RPMI 5 mM glucose + 10% FBS, 0.00702 µM
[15] = RPMI 5 mM glucose + 10% FBS, 0.0211 µM
[16] = RPMI 5 mM glucose + 10% FBS, 0.0632 µM
[17] = RPMI 5 mM glucose + 10% FBS, 0.19 µM
[18] = RPMI 5 mM glucose + 10% FBS, 0.569 µM
[19] = RPMI 5 mM glucose + 10% FBS, 1.71 µM
[20] = RPMI 5 mM glucose + 10% FBS, 5.12 µM
[21] = RPMI 5 mM glucose + 10% FBS, 15.4 µM
[22] = RPMI 5 mM glucose + 10% FBS, 46.1 µM
[23] = RPMI 5 mM glucose + 10% dialyzed FBS, 0.000781 µM
[24] = RPMI 5 mM glucose + 10% dialyzed FBS, 0.00234 µM
[25] = RPMI 5 mM glucose + 10% dialyzed FBS, 0.00702 µM
[26] = RPMI 5 mM glucose + 10% dialyzed FBS, 0.0211 µM
[27] = RPMI 5 mM glucose + 10% dialyzed FBS, 0.0632 µM
[28] = RPMI 5 mM glucose + 10% dialyzed FBS, 0.19 µM
[29] = RPMI 5 mM glucose + 10% dialyzed FBS, 0.569 µM
[30] = RPMI 5 mM glucose + 10% dialyzed FBS, 1.71 µM
[31] = RPMI 5 mM glucose + 10% dialyzed FBS, 5.12 µM
[32] = RPMI 5 mM glucose + 10% dialyzed FBS, 15.4 µM
[33] = RPMI 5 mM glucose + 10% dialyzed FBS, 46.1 µM

Row | SMILES | cell viability [1] [%] | cell viability [2] [%] | cell viability [3] [%] | cell viability [4] [%] | cell viability [5] [%] | cell viability [6] [%] | cell viability [7] [%] | cell viability [8] [%] | cell viability [9] [%] | cell viability [10] [%] | cell viability [11] [%] | cell viability [12] [%] | cell viability [13] [%] | cell viability [14] [%] | cell viability [15] [%] | cell viability [16] [%] | cell viability [17] [%] | cell viability [18] [%] | cell viability [19] [%] | cell viability [20] [%] | cell viability [21] [%] | cell viability [22] [%] | cell viability [23] [%] | cell viability [24] [%] | cell viability [25] [%] | cell viability [26] [%] | cell viability [27] [%] | cell viability [28] [%] | cell viability [29] [%] | cell viability [30] [%] | cell viability [31] [%] | cell viability [32] [%] | cell viability [33] [%]
1 | OC1=CC=C(C=C1)\C2=C\C(=O)C3=C(O2)C=C(O)C=C3O | 110 | 112 | 113 | 119 | 114 | 120 | 116 | 108 | 107 | 108 | 109 | 111 | 109 | 112 | 111 | 105 | 106 | 104 | 105 | 104 | 109 | 96.6 | 117 | 120 | 119 | 122 | 118 | 113 | 115 | 109 | 110 | 103 | 96.4
2 | Cc1c(C(=O)Nc2cccc(C(F)(F)F)c2)cc(-c2ccccc2)n1CCCN1CCOCC1 | 116 | 112 | 113 | 112 | 106 | 106 | 104 | 99.2 | 104 | 91.7 | 79.7 | 111 | 109 | 115 | 105 | 113 | 119 | 108 | 108 | 97.1 | 88 | 70.3 | 105 | 117 | 114 | 114 | 114 | 107 | 106 | 103 | 103 | 94 | 74.1
3 | CC(C)C[C@H](NC(=O)[C@H](Cc1ccccc1)NC(=O)c1cnccn1)B(O)O | 96.4 | 92.9 | 106 | 106 | 4.77 | 2.92 | 2.65 | 2.46 | 1.35 | 0.316 | -0.93 | 93.4 | 103 | 107 | 101 | 4.71 | 2.56 | 2.17 | 1.91 | 1.36 | 0.651 | -0.626 | 88.6 | 105 | 99 | 102 | 4.76 | 2.71 | 2.62 | 1.7 | 1.34 | 0.782 | -0.254
4 | Cc1ccc(-c2ncn(-c3ccc(Nc4nccc(-c5cccc(N6CCOCC6)c5)n4)cc3)n2)cn1 | 93.9 | 94.5 | 94.8 | 98.2 | 96.1 | 90.7 | 5.93 | 5.41 | 5.42 | 4.29 | 4.16 | 92.2 | 92.8 | 90.2 | 89.8 | 94.5 | 83.6 | 3.59 | 3.74 | 2.21 | 3.15 | 3.43 | 82.2 | 87.5 | 80.8 | 86.6 | 87.6 | 96.3 | 3.87 | 3.59 | 2.81 | 2.93 | 2.94
5 | O=c1[nH]cnc2c1ncn2[C@H]1CC[C@@H](CO)O1 | 95.9 | 101 | 107 | 102 | 99.6 | 105 | 108 | 112 | 105 | 99.6 | 74.1 | 83.3 | 97.3 | 94.6 | 109 | 96.1 | 101 | 104 | 108 | 102 | 91.7 | 65.5 | 83.7 | 101 | 94.3 | 90.1 | 96.8 | 96.5 | 96 | 104 | 97.1 | 84 | 67.1
6 | C=CCn1c(=O)c2cnc(Nc3ccc(N4CCN(C)CC4)cc3)nc2n1-c1cccc(C(C)(C)O)n1 | 120 | 116 | 121 | 125 | 110 | 111 | 99.3 | 43.7 | 17 | 15.9 | 17.4 |  |  |  |  |  |  |  |  |  |  |  |  |  |  |  |  |  |  |  |  |  | 
7 | C[C@@H]1CC[C@@]2(OC1)OC1CC3C4CC=C5CC(O)CCC5(C)C4CCC3(C)C1[C@@H]2C (some centres undefined) | 101 | 105 | 97 | 104 | 107 | 106 | 112 | 106 | 110 | 25.8 | 6.49 | 98.9 | 99.9 | 102 | 106 | 106 | 99.3 | 104 | 108 | 118 | 86.8 | 36.4 | 92 | 96.3 | 92.3 | 99.3 | 97 | 106 | 105 | 105 | 119 | 73.8 | 16.8
8 | CC1(C)CC(O)CC(C)(C)N1[O] | 111 | 112 | 119 | 118 | 128 | 121 | 132 | 124 | 120 | 117 | 119 | 110 | 111 | 109 | 110 | 126 | 134 | 125 | 114 | 119 | 119 | 116 | 107 | 122 | 113 | 120 | 125 | 129 | 125 | 134 | 127 | 127 | 126
9 | CCCCCCCCc1ccc(CCC(N)(CO)CO)cc1 | 113 | 111 | 113 | 104 | 108 | 112 | 101 | 107 | 76.1 | 84.1 | 7.48 | 118 | 114 | 113 | 114 | 119 | 115 | 104 | 101 | 80.8 | 60 | 3.8 | 105 | 110 | 112 | 109 | 103 | 111 | 90.2 | 114 | 87.2 | 68 | 3.18
10 | N#CC(=C(/N)Sc1ccccc1N)/C(C#N)=C(\N)Sc1ccccc1N | 115 | 121 | 120 | 128 | 131 | 125 | 131 | 120 | 126 | 124 | 111 |  |  |  |  |  |  |  |  |  |  |  |  |  |  |  |  |  |  |  |  |  | 
11 | Cc1cn(CCN2CCN(c3ccccc3-c3cc(C#N)cc(C(=O)NCCCN4CCCC4)c3)CC2)c2ccccc12 | 110 | 109 | 106 | 104 | 109 | 115 | 119 | 120 | 91.2 | 8.78 | 6.19 | 107 | 107 | 103 | 115 | 118 | 118 | 124 | 103 | 90.8 | 23.2 | 15.6 | 118 | 119 | 117 | 117 | 124 | 126 | 128 | 111 | 93 | 26.9 | 19.9
12 | Oc1cc(O)cc(/C=C/c2ccc(O)c(O)c2)c1 | 103 | 103 | 100 | 106 | 103 | 109 | 106 | 111 | 98 | 85.2 | 28.3 | 97.5 | 92.7 | 101 | 104 | 102 | 97.8 | 105 | 97 | 85 | 91.1 | 45.6 | 87.6 | 88.3 | 101 | 104 | 102 | 104 | 93 | 101 | 93.6 | 84.4 | 40.7
13 | COc1cc(-c2nn(C3CCC(N4CCN(C(C)=O)CC4)CC3)c3ncnc(N)c23)ccc1NC(=O)c1cc2ccccc2n1C (centres undefined) | 117 | 114 | 114 | 128 | 115 | 116 | 107 | 111 | 103 | 102 | 83.9 | 110 | 114 | 118 | 115 | 113 | 117 | 109 | 102 | 113 | 115 | 100 | 109 | 110 | 119 | 117 | 114 | 106 | 110 | 109 | 110 | 103 | 97.7
14 | Cc1cc(O)c2c(c1)C(=O)c1cc(O)cc(O)c1C2=O | 99.9 | 107 | 99.6 | 104 | 110 | 103 | 110 | 105 | 95.3 | 94.2 | 100 | 100 | 99.2 | 107 | 96.4 | 108 | 104 | 99.1 | 103 | 102 | 90.6 | 86.6 | 91.5 | 92.2 | 88.8 | 97.7 | 99.8 | 97.1 | 96.4 | 90.8 | 97 | 94 | 84.8
15 | C[N+](C)([O-])CCNc1ccc(NCC[N+](C)(C)[O-])c2c1C(=O)c1c(O)ccc(O)c1C2=O | 99.5 | 98.6 | 97.6 | 103 | 100 | 90.1 | 83.2 | 63.4 | 21.8 | 28.9 | 15.2 | 101 | 101 | 92.3 | 102 | 82.7 | 72.3 | 62.9 | 42.8 | 7.99 | 13.9 | 7.05 | 84.3 | 80.9 | 95.8 | 96 | 83.7 | 79.3 | 76.2 | 44.9 | 14.8 | 23.6 | 10.6
16 | COC1(C[S+]([O-])c2ccccc2)CCN(CCc2c[nH]c3ccc(F)cc23)CC1 (centres undefined) | 112 | 105 | 112 | 114 | 113 | 115 | 109 | 96.6 | 102 | 99.6 | 93.2 | 117 | 116 | 133 | 148 | 140 | 99.9 | 78.9 | 78.7 | 115 | 106 | 97.6 | 104 | 111 | 114 | 116 | 109 | 105 | 103 | 98.4 | 105 | 99.9 | 85.4
